Measured values: US20230346773A1, “USE OF PCSK9 INHIBITOR IN PREPARATION OF PRODUCT FOR TREATING MULTIPLE DISEASES” (priority 2020, published 2023)

Assays:
Assay type in all cases: in vivo, Wistar rats
[1] = test system: MMP-2; assay: Bleomycin pulmonary fibrosis rat model: MMP-2 expression in lung tissue; settings: after 14 days of treatment, tail vein 3 mg/kg·d, n = 6, x ± s
Protocol: (§1) Rats were numbered according to their body weight and divided into groups according to their body weight by random arrangement table method, and divided into small molecule compound treatment group (tail vein injection of PCSK9 small molecule compound inhibitor, 3 mg/kg·d), siPcsk9 treatment group (Tail vein injection of PCSK9 small interfering RNA, 3 mg/kg·d), monoclonal antibody treatment group (tail vein injection of PCSK9 monoclonal antibody, 3 mg/kg·d), peptide treatment group (tail vein injection of PCSK9 polypeptide inhibitor, 3 mg/kg·d), model group (injection of physiological saline into tail vein, 3 mg/kg·d), and blank control group (injection of physiological saline into tail vein, 3 mg/kg·d), 12 animals in each group, half male and half female. Rats in each group were anesthetized by intraperitoneal injection of 2% sodium pentobarbital ([…]), fixed on the operating table, and injected into the neck trachea. The control group was injected with normal saline (1.25 ml/kg), and the model group and each treatment group were injected with 5 U/mL bleomycin solution (5 mg/kg). […]
(§2) Peripheral venous blood was collected from the tail vein of animals in each group after modeling and 14 days after treatment, and the levels of superoxide dismutase (SOD) and catalase (CAT) in peripheral blood were detected. […]

[2] = test system: VEGF protein; assay: Bleomycin pulmonary fibrosis rat model: VEGF protein in lung tissue by ELISA; settings: n = 6, x ± s
Protocol: as §1, §2

[3] = test system: VEGF-mRNA; assay: Bleomycin pulmonary fibrosis rat model: VEGF-mRNA in lung tissue by reverse transcription PCR; settings: n = 6, x ± s
Protocol: as §1, §2

[4] = test system: superoxide dismutase (SOD); assay: Bleomycin pulmonary fibrosis rat model: SOD in peripheral blood; settings: n = 6, x ± s
Protocol: as §1, §2

[5] = test system: catalase (CAT); assay: Bleomycin pulmonary fibrosis rat model: CAT in peripheral blood; settings: n = 6, x ± s
Protocol: as §1, §2

[6] = after modeling (before the 14 days of treatment)
[7] = tail vein 3 mg/kg·d once a day for 14 days

## COc1ccc(CCC(=O)N(c2nccc3ccccc23)[C@@H]2CCCNC2)cc1 [Compound group 1, R-IMPP]
[1]
  MMP-2: 2.67 ± 0.32
[2]; [6]
  VEGF protein, 14 days after modeling: 38.47 ± 3.23 pg/mL
[2]; [7]
  VEGF protein, 14 days after treatment: 57.61 ± 3.86 pg/mL
[3]; [6]
  VEGF-mRNA, 14 days after modeling: 0.53 ± 0.16
[3]; [7]
  VEGF-mRNA, 14 days after treatment: 0.85 ± 0.16
[4]; [6]
  SOD, 14 days after modeling: 171.45 ± 13.92 U/ml
[4]; [7]
  SOD, 14 days after treatment: 218.56 ± 14.36 U/ml
[5]; [6]
  CAT, 14 days after modeling: 9.43 ± 2.31 kU/g
[5]; [7]
  CAT, 14 days after treatment: 14.45 ± 1.51 kU/g
